Data set [1] has as its system miR-124. Briefly: Induction of miR-124 expression in PBMC cells (qPCR). Format: cell-based. Conditions: Homo sapiens, 72 h, 0.1 μM compound, human PBMCs stimulated with PMA/ionomycin, miR-191 reference gene, read-out: miR-124 expression, Fold change vs DMSO. The gist of the method: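 Human PBMCs (3.0*10^6 cells/well) were stimulated with PMA 10 ng/mL plus ionomycin 200 ng/mL for 48 h, then given compound at 0.1 μM final for 72 h. miR-124 was measured by RT-qPCR against miR-191 as reference gene. Expression is relative to DMSO control.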
(In general: Quantitative PCR measures a nucleic acid by following its amplification.)

The nature of data set [2]: In vivo pharmacokinetic evaluation in mice. Conditions: mouse; male ICR mice, po, 10 mg/kg, plasma. The protocol:
The compound was administered orally (p.o.) at a dose of 10 mg/kg. The test formulation was prepared at a final concentration of 0.4 mg/mL in 5% DMSO+45% PEG400+50% aqueous solution or suspension. Male ICR mice (9 per group) were sampled at three discontinuous time points (n=3 mice/time point). Approximately 80 μL of blood was collected via orbital or cardiac puncture at 5 min, 15 min, 30 min, 1 h, 2 h, 4 h, 8 h, and 24 h post-dose. All whole blood samples were collected in EDTA K2-containing tubes. After centrifugation at 4° C. (4000 rpm, 10 min), plasma was collected and stored below −40° C. for subsequent analysis. Compound concentrations in plasma were determined by liquid chromatography-tandem mass spectrometry (LC-MS/MS), and pharmacokinetic parameters were derived from the plasma concentration-time curves.

Data set [3] concerns DSS-induced IBD in mice. Briefly: Preventive and therapeutic effects on DSS-induced inflammatory bowel disease (IBD) in mice. In kind it is in vivo. As to conditions: for reduction in total DAI scores compared to the model group / Total Disease Activity Index (DAI) Scores / Colon length / colon length as % of normal control values / total DAI scores: 40 mg/kg p.o. q.d.; for body weight loss percentage / body weight gain percentage: day 10, 40 mg/kg p.o. q.d., female C57BL/6 mice, 2% DSS; for Total Disease Activity Index (DAI) Scores / total DAI scores: final day; for Total Disease Activity Index (DAI) Scores / Colon length: mean ± S.E.M.; for Total Disease Activity Index (DAI) Scores: model group 14.50; for Colon length: last experimental day, normal control 6.44, model group 4.98; for colon length as % of normal control values: model group 77.32%; for total DAI scores: model group 14.5 points; for preventive and therapeutic effects on DSS-induced IBD (body weight, DAI, colon length) relative to ABX464: further experiments, figures not given. The text has this:
This study evaluated the preventive and therapeutic effects of the compounds of the present invention on dextran sulfate sodium (DSS)-induced IBD in mice. The experiment utilized female C57BL/6 mice (purchased from Beijing Vital River Laboratory Animal Technology Co., Ltd.) to establish the DSS-induced IBD model.
Female C57BL/6 mice (6-8 weeks old) were purchased from Beijing Vital River Laboratory Animal Technology Co., Ltd. Upon arrival, the mice were housed in individually ventilated cages (IVC) under specific pathogen-free (SPF) conditions, with 2-6 mice per cage. They were provided with ad libitum access to food and water and maintained at a temperature of 20-26° C. (68-79° F.), relative humidity of 40-70%, and a 12-hour light/dark cycle (lights on from 08:00 to 20:00). After a 7-day acclimatization period, experiments were initiated.
Test compounds and ABX464 vehicle: 5% DMSO+10% Solutol HS-15+85% saline, stored at 4° C.
DSS solution: 2% (w/v) DSS in autoclaved drinking water, prepared fresh before use.
The mice were randomly allocated into eight groups according to body weight: normal control group (negative control), model group (DSS group), ABX464 treatment group, test compound groups (administered with Compounds 19, 43, 59, 84, and 89 of the present invention at 40 mg/kg, p.o., q.d.)
Following a 7-day acclimation period, the model group and compound treatment groups were administered 2% DSS aqueous solution ad libitum for 7 days starting from Day 0, followed by 3 days of normal water consumption. All groups received daily oral gavage of their respective vehicles or test compounds for 10 consecutive days beginning on the trial commencement date. During the experimental period, body weight changes in mice were monitored and recorded daily, the Disease Activity Index (DAI) was scored each day with the total score calculated on the final day, and on the last experimental day all animals were humanely euthanized followed by colon collection and length measurement.
The experimental data were expressed as mean±standard error of the mean (mean±S.E.M.). Statistical analysis was performed using GraphPad Prism or SPSS software with appropriate statistical methods. A value of P<0.05 was considered statistically significant.

One may read the AUC(0-t) as exposure summed from dosing to a finite time, without extrapolation to infinity. A word on the Cmax: it is the peak of the concentration-time curve. Broadly, the Tmax is the time from dosing to the highest level. By half-life is commonly meant the time needed for the level to fall by half in the phase considered. As for `FC(F)(F)Oc1ccc(Nc2ccc3cccc(Cl)c3n2)cc1` [ABX464, reference compound], in data set [1], the fold induction at 0.1 µM was 13.5. Moreover, in data set [2], the AUC(0-t) stood at 0.42 µg·h/mL, the peak level (Cmax) was 0.168 µg/mL, the Tmax was found to be 0.5 h and the half-life is 1.08 h. Also, in data set [3], the “reduction in total DAI scores compared to the model group” value (shortened to “reduction in total DAI scores”) is 5.72%, the “body weight loss percentage” value was 5.37%, the “Total Disease Activity Index (DAI) Scores” value (from here on “Total Disease Activity Index”) was 13.67 and the Colon length was determined as 6.22 cm.
For `FC(F)(F)Oc1ccc(Nc2nc3c(Cl)cccc3n3ccnc23)cc1Cl` [Compound 19], the fold induction at 0.1 µM in data set [1] is 21.2. In addition, in data set [2], the AUC(0-t) amounted to 1.64 µg·h/mL, the concentration peaked (Cmax) at 0.358 µg/mL, the Tmax came to 4 h and the half-life was 3.36 h. Moreover, in data set [3], the “reduction in total DAI scores” value is recorded as 42.55%, the “colon length as % of normal control values” (“colon length as %” for short) is listed as 96.27%, the “body weight gain percentage” value is given as 0.16% and the “Total Disease Activity Index” value was determined as 8.33. In addition, in data set [3], the “total DAI scores” value worked out at 8.33 points and the Colon length is 6.20 cm.
For the molecule `Fc1cc(Nc2nc3c(F)cccc3n3ccnc23)ccc1OC(F)(F)F` [Compound 43], the fold induction at 0.1 µM in data set [1] came to 18.9. Further, in data set [2], the AUC(0-t) was found to be 1.68 µg·h/mL, the highest level (Cmax) was 0.348 µg/mL, the Tmax worked out at 2 h and the half-life was 3.87 h. In addition, in data set [3], the “colon length as %” value was 99.69%, the “body weight loss percentage” value is listed as 2.22%, the “Total Disease Activity Index” value was 10.03 and the “total DAI scores” value turned out to be 10.03 points. Also, the Colon length in data set [3] is listed as 6.42 cm.
For the molecule `Fc1cc(Nc2nc3c(F)cc(Cl)cc3n3ccnc23)ccc1C(F)(F)F` [Compound 59], in data set [1], the fold induction at 0.1 µM was 20.5. In data set [3], the “reduction in total DAI scores” value amounted to 40.90%, the “colon length as %” value was 100%, the “body weight gain percentage” value came out at 2.12% and the “Total Disease Activity Index” value is 8.57. In data set [3], the “total DAI scores” value is reported as 8.57 points and the Colon length amounted to 6.48 cm.
Regarding `FC(F)(F)Oc1ccc(NC2=Nc3c(Br)cccc3N3CCN=C23)cc1Cl` [Compound 84], the fold induction at 0.1 µM in data set [1] was 15.5. For the same molecule, in data set [3], the “reduction in total DAI scores” value is 41.59%, the “colon length as %” value was 96.89%, the “body weight gain percentage” value came out at 0.38% and the “Total Disease Activity Index” value is 8.47. Further, in data set [3], the “total DAI scores” value amounted to 8.47 points and the Colon length is listed as 6.24 cm.
As to `FC(F)(F)c1ccc(NC2=Nc3c(Cl)cc(Cl)cc3N3CCN=C23)cc1` [Compound 89], the fold induction at 0.1 µM in data set [1] amounted to 24.3. In data set [2], the AUC(0-t) worked out at 1.86 µg·h/mL, the highest level (Cmax) was 0.454 µg/mL, the Tmax came to 2 h and the half-life is 3.46 h. Also, in data set [3], the “colon length as %” value amounted to 99.07%, the “body weight loss percentage” value is reported as 1.85%, the “Total Disease Activity Index” value was 10.33 and the “total DAI scores” value is 10.33 points. In addition, the Colon length in data set [3] worked out at 6.38 cm.
For `FC(F)(F)Oc1ccc(Nc2nc3cc(Cl)ccc3n3ccnc23)cc1` [Compound B7, 7-chloro-N-(4-(trifluoromethoxy)phenyl)imidazolo [1,2-a]quinoxalin-4-amine], in data set [1], the fold induction at 0.1 µM amounted to 32. In data set [2], the AUC(0-t) was found to be 3.23 µg·h/mL, the Cmax was found to be 0.378 µg/mL, the Tmax stood at 2 h and the half-life was 3.05 h. Besides, the “preventive and therapeutic effects on DSS-induced IBD (body weight, DAI, colon length) relative to ABX464” value in data set [3] is “outperformed the reference drug ABX464”.
`FC(F)(F)c1ccc(Nc2nc3cccc(Cl)c3n3ccnc23)cc1Cl` [Compound B54, 9-chloro-N-(3-chloro-4-(trifluoromethyl)phenyl)imidazolo [1,2-a]quinoxalin-4-amine]: the fold induction at 0.1 µM in data set [1] was 34.1. In addition, in data set [2], the AUC(0-t) turned out to be 1.33 µg·h/mL, the Cmax turned out to be 0.346 µg/mL, the Tmax is 0.5 h and the half-life was 1.96 h.
On to `FC(F)(F)Oc1ccc(Nc2nc3cccc(Br)c3n3ccnc23)cc1Cl` [Compound B83, 9-bromo-N-(3-chloro-4-(trifluoromethoxy)phenyl) imidazolo[1,2-a] quinoxalin-4-amine], for which, in data set [3], the “preventive and therapeutic effects on DSS-induced IBD (body weight, DAI, colon length) relative to ABX464” value was “outperformed the reference drug ABX464”.
On to `Fc1cc(Nc2nc3cc(Cl)cc(Cl)c3n3ccnc23)ccc1C(F)(F)F` [Compound B97, 7,9-dichloro-N-(3-fluoro-4-(trifluoromethyl)phenyl) imidazolo[1,2-a] quinoxalin-4-amine], for which, in data set [1], the fold induction at 0.1 µM is 26.2. The “preventive and therapeutic effects on DSS-induced IBD (body weight, DAI, colon length) relative to ABX464” value in data set [3] was “outperformed the reference drug ABX464”.
For `FC(F)(F)Oc1ccc(Nc2nc3cc(Cl)ccc3n3ccnc23)cc1Cl` [Compound B108, 7-chloro-N-(3-chloro-4-(trifluoromethoxy)phenyl) imidazolo[1,2-a] quinoxalin-4-amine], in that order: 22.5 and “outperformed the reference drug ABX464”.
With `FC(F)(F)Oc1ccc(NC2=Nc3cccc(Cl)c3N3CCN=C23)cc1` [Compound B118, 9-chloro-N-(4-(trifluoromethoxy)phenyl)-1,2-dihydroimidazo[1,2-a] quinoxalin-4-amine], the fold induction at 0.1 µM in data set [1] came out at 28.8. Further, in data set [2], the AUC(0-t) stood at 1.88 µg·h/mL, the highest level (Cmax) was 0.269 µg/mL, the Tmax was determined as 2 h and the half-life was 2.47 h.
On to `FC(F)(F)c1ccc(NC2=Nc3cccc(Cl)c3N3CCN=C23)cc1` [Compound B121, 9-chloro-N-(4-(trifluoromethyl)phenyl)-1,2-dihydroimidazo[1,2-a] quinoxalin-4-amine], for which the fold induction at 0.1 µM in data set [1] worked out at 29.5. In data set [2], the AUC(0-t) turned out to be 1.95 µg·h/mL, the concentration peaked (Cmax) at 0.378 µg/mL, the Tmax worked out at 1 h and the half-life is 2.12 h.
Turning to `FC(F)(F)c1ccc(NC2=Nc3cc(Cl)cc(Cl)c3N3CCN=C23)cc1` [Compound B139, 7,9-dichloro-N-(4-(trifluoromethyl)phenyl)-1,2-dihydroimidazo[1,2-a] quinoxalin-4-amine], the fold induction at 0.1 µM in data set [1] is 40.6. Also, in data set [2], the AUC(0-t) is 3.26 µg·h/mL, the Cmax came to 0.375 µg/mL, the Tmax was determined as 2 h and the half-life is 3.36 h.

The values above are taken from patent publication US20260232662A1, “MIR-124 INDUCER, AND PREPARATION METHOD THEREFOR AND USE THEREOF” (NANJING SYNNOCARE PHARMACEUTICAL TECHNOLOGY CO., LTD., priority 2023, published 2026).
